Target: T1, active p38 alpha enzyme (Upstate Biotechnology) (Homo sapiens, UniProt Q16539)
T1 construct: purchased Upstate Biotechnology
Assay: p38α biochemical assay (ATP turnover, luminescent detection, Cambrex PKlight)
Settings: p38α biochemical assay, Table 1 Biological Activity
Summary of the method: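 Measures total ATP turnover by luminescence after human p38α phosphorylates full MapkapK2 protein. Final ATP is 1.4 uM, and incubation runs 2 hours at 30C. The buffer includes 100 mM MgCl2, 4 mM CaCl2 and 1 mg/ml BSA.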

T1 sequence (Q16539 whole entry): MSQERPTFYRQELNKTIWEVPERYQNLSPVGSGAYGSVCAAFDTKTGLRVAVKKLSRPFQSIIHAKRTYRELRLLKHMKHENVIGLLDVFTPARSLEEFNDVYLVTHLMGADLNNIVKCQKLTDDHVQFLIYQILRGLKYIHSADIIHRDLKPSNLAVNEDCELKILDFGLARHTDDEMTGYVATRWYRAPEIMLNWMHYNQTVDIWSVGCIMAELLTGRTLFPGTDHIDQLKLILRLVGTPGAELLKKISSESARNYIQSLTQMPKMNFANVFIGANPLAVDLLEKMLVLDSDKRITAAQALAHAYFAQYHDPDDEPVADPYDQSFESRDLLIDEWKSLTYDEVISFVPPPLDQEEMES

Q: With CC(C)NC(=O)c1csc(-c2oc(CN3CCN(C(=O)Cc4ccc5c(c4)OCO5)CC3)nc2-c2ccc(F)cc2)n1 [Example 454] as the compound, how does the IC50 read?
A: > 1000 nM

Q: Which IC50 does the source give for CC(C)NC(=O)c1csc(-c2oc(CN3CCN(C(=O)Cc4ccc(Br)cc4)CC3)nc2-c2ccc(F)cc2)n1 [Example 531] here?
A: ≤ 1000 nM

Q: For CC(C)NC(=O)c1csc(-c2oc(CN3CCN(C(=O)c4cncc(Br)c4)CC3)nc2-c2ccc(F)cc2)n1 [Example 514], which IC50 is on record?
A: > 1000 nM

Q: With CC(C)NC(=O)c1csc(-c2oc(CNC(=O)C(C)c3ccc(-c4ccccc4)c(F)c3)nc2-c2ccc(F)cc2)n1 (stereo not shown) [Example 324] as the compound, how does the IC50 read?
A: > 1000 nM

Q: With CC(C)NC(=O)c1csc(-c2c(-c3ccc(F)cc3)noc2CNC(=O)CCc2nc3ccccc3[nH]2)n1 [Example 725] as the compound, how does the IC50 read?
A: > 1000 nM

Q: With CCN(CC)c1ccc(C(=O)N2CCN(Cc3nc(-c4ccc(F)cc4)c(-c4nc(C(=O)NC(C)C)cs4)o3)CC2)cc1 [Example 497] as the compound, how does the IC50 read?
A: ≤ 1000 nM

Q: Which IC50 does the source give for CC(C)NC(=O)c1csc(-c2oc(CNC(=O)c3ccccc3C(=O)c3ccc(O)cc3)nc2-c2ccc(F)cc2)n1 [Example 322] here?
A: ≤ 1000 nM

Q: Which IC50 does the source give for COc1cccc(OC)c1C(=O)NCc1onc(-c2ccc(F)cc2)c1-c1nc(C(=O)NC(C)C)cs1 [Example 701] here?
A: > 1000 nM

Q: For CC(C)NC(=O)c1csc(-c2oc(CNC(=O)c3cccnc3)nc2-c2ccc(F)cc2)n1 [Example 112], which IC50 is on record?
A: ≤ 1000 nM

Q: With Cc1ccc(SCC(=O)NCc2nc(-c3ccc(F)cc3)c(-c3nc(C(=O)NC(C)C)cs3)o2)cc1 [Example 229] as the compound, how does the IC50 read?
A: > 1000 nM

Q: How did the IC50 turn out when CC(C)CC(=O)NCc1onc(-c2ccc(F)cc2)c1-c1nc(C(=O)NC(C)C)cs1 [Example 579] was run?
A: > 1000 nM

Q: Which IC50 does the source give for Cc1[nH]nc(-c2ccc(F)cc2)c1-c1nc(C(=O)NCc2ccc3c(c2)OCO3)cs1 [Example 74, 2-|3-(4-Fluoro-phenyl)-5-methyl-1H-pyrazol-4-yl|-thiazole-4-carboxylic acid (benzo|1,3|dioxol-5-yl methyl)-amide] here?
A: ≤ 1000 nM

Q: Which IC50 does the source give for COc1ccc(Cl)cc1C(=O)NCc1nc(-c2ccc(F)cc2)c(-c2nc(C(=O)NC(C)C)cs2)o1 [Example 238] here?
A: > 1000 nM

Q: How did the IC50 turn out when CC(C)NC(=O)c1csc(-c2c(-c3ccc(F)cc3)noc2CNC(=O)c2cc(Cl)ccc2O)n1 [Example 671] was run?
A: > 1000 nM

Q: How did the IC50 turn out when CC(C)NC(=O)c1csc(-c2c(-c3ccc(F)cc3)noc2CNC(=O)c2cc(O)c(O)c(O)c2)n1 [Example 665] was run?
A: > 1000 nM

Q: Which IC50 does the source give for CC(C)NC(=O)c1csc(-c2c(-c3ccc(F)cc3)noc2CNC(=O)Cc2ccc3c(c2)OCO3)n1 [Example 692] here?
A: > 1000 nM

Q: CC(C)NC(=O)c1csc(-c2c(-c3ccc(F)cc3)noc2CNC(=O)c2cccc(O)c2)n1 [Example 599] was tested. Which IC50 did it give?
A: > 1000 nM

Q: For CC(C)NC(=O)c1csc(-c2oc(CNC(=O)c3cc(C(C)C)cc(C(C)C)c3O)nc2-c2ccc(F)cc2)n1 [Example 304], which IC50 is on record?
A: ≤ 1000 nM

Q: With CC(C)NC(=O)c1csc(-c2oc(CN3CCN(C(=O)c4ccccc4)CC3)nc2-c2ccc(F)cc2)n1 [Example 348] as the compound, how does the IC50 read?
A: > 1000 nM

Q: How did the IC50 turn out when CC(C)NC(=O)c1csc(-c2oc(CNC(=O)c3cc(O)c(O)c(O)c3)nc2-c2ccc(F)cc2)n1 [Example 190] was run?
A: ≤ 1000 nM

Q: Which IC50 does the source give for CC(C)NC(=O)c1csc(-c2c(-c3ccc(F)cc3)noc2CNC(=O)c2ccccn2)n1 [Example 589] here?
A: > 1000 nM

Q: With CC(C)NC(=O)c1csc(-c2oc(CN3CCN(C(=O)/C=C/c4ccccc4C(F)(F)F)CC3)nc2-c2ccc(F)cc2)n1 [Example 533] as the compound, how does the IC50 read?
A: > 1000 nM

Q: With COc1ccccc1CC(=O)N1CCN(Cc2nc(-c3ccc(F)cc3)c(-c3nc(C(=O)NC(C)C)cs3)o2)CC1 [Example 419] as the compound, how does the IC50 read?
A: ≤ 1000 nM

Q: How did the IC50 turn out when CC(C)NC(=O)c1csc(-c2oc(CN3CCN(C(=O)c4ccc5cc(O)ccc5c4)CC3)nc2-c2ccc(F)cc2)n1 [Example 479] was run?
A: > 1000 nM

Q: How did the IC50 turn out when CC(C)NC(=O)c1csc(-c2oc(CN3CCN(C(=O)c4ccc(C(C)C)cc4)CC3)nc2-c2ccc(F)cc2)n1 [Example 408] was run?
A: > 1000 nM

Q: Which IC50 does the source give for CC(C)NC(=O)c1csc(-c2oc(CNC(=O)c3ccccc3C(=O)c3ccc(F)cc3)nc2-c2ccc(F)cc2)n1 [Example 323] here?
A: > 1000 nM

Q: CC(C)NC(=O)c1csc(-c2oc(CN3CCN(C(=O)c4ccccc4[N+](=O)[O-])CC3)nc2-c2ccc(F)cc2)n1 [Example 421] was tested. Which IC50 did it give?
A: > 1000 nM

Q: How did the IC50 turn out when Cc1onc(-c2ccc(F)cc2)c1-c1csc(C(=O)NC(C)C)n1 [Example 34] was run?
A: ≤ 1000 nM

Q: For Cc1ccccc1CCC(=O)NCc1onc(-c2ccc(F)cc2)c1-c1nc(C(=O)NC(C)C)cs1 [Example 647], which IC50 is on record?
A: > 1000 nM

Q: With Cc1nc(-c2ccc(F)cc2)c(-c2nc(C(=O)NCCCO)cs2)s1 [Example 52, 4′-(4-Fluoro-phenyl)-2′-methyl-|2,5′|bithiazolyl-4-carboxylic acid (3-hydroxy-propyl)-amide] as the compound, how does the IC50 read?
A: ≤ 1000 nM

Same assay, conditions: p38α kinase; Table 1 Biological Activity

Q: CC(C)NC(=O)c1csc(-c2oc(CN3CCN(c4ccccc4F)CC3)nc2-c2ccc(F)cc2)n1 [Example 1253] was tested. Which IC50 did it give?
A: > 1000 nM

Q: Which IC50 does the source give for CC(C)NC(=O)c1csc(-c2oc(CNCC(=O)c3ccccc3)nc2-c2ccc(F)cc2)n1 [Example 1163] here?
A: > 1000 nM

Q: Which IC50 does the source give for CC(C)NC(=O)c1csc(-c2c(-c3ccc(F)cc3)n[nH]c2C2CCN(C(=O)c3ccc4cccc(O)c4n3)CC2)n1 [Example 960] here?
A: > 1000 nM

Q: How did the IC50 turn out when CC(C)NC(=O)c1csc(-c2[nH][nH]c(=O)c2-c2ccc(F)cc2)n1 [Example 2180, 2-|4-(4-Fluoro-phenyl)-5-oxo-2,5-dihydro-1H-pyrazol-3-yl|-thiazole-4-carboxylic acid isopropylamide] was run?
A: ≤ 1000 nM

Q: Which IC50 does the source give for CC(C)NC(=O)c1csc(-c2oc(CNc3ccccc3-c3ccccc3)nc2-c2ccc(F)cc2)n1 [Example 1360] here?
A: > 1000 nM

Q: How did the IC50 turn out when CC(C)NC(=O)c1csc(-c2c(-c3ccc(F)cc3)noc2CNC(CO)C(C)C)n1 (stereo not shown) [Example 1414] was run?
A: > 1000 nM

Q: Which IC50 does the source give for Cc1nc(-c2ccc(F)cc2)c(-c2nc(C(=O)NCCN3CCCCC3)cs2)s1 [Example 1763] here?
A: > 1000 nM

Q: For COc1ccc(CCNCc2nc(-c3ccc(F)cc3)c(-c3nc(C(=O)NC(C)C)cs3)o2)cc1 [Example 1145], which IC50 is on record?
A: > 1000 nM

Q: Which IC50 does the source give for Cc1nc(-c2ccc(F)cc2)c(-c2nc(C(=O)NC3CC3)cs2)s1 [Example 1709] here?
A: > 1000 nM

Q: Which IC50 does the source give for CC(C)NC(=O)c1csc(-c2c(-c3ccc(F)cc3)n[nH]c2C2CCN(C(=O)C(C)NC(=O)OC(C)(C)C)CC2)n1 (stereo not shown) [Example 961] here?
A: > 1000 nM

Q: How did the IC50 turn out when Cc1cccc(NC(=O)c2csc(-c3sc(C)nc3-c3ccc(F)cc3)n2)n1 [Example 1960] was run?
A: > 1000 nM

Q: Which IC50 does the source give for CC(C)NC(=O)c1csc(-c2oc(CNCc3ccco3)nc2-c2ccc(F)cc2)n1 [Example 1076] here?
A: > 1000 nM

Q: Which IC50 does the source give for Cc1nc(-c2ccc(F)cc2)c(-c2nc(C(=O)N3CCCC3CO)cs2)s1 (stereo not shown) [Example 1850] here?
A: ≤ 1000 nM

Q: Which IC50 does the source give for CCN(Cc1ccccc1)Cc1nc(-c2ccc(F)cc2)c(-c2nc(C(=O)NC(C)C)cs2)o1 [Example 1225] here?
A: > 1000 nM

Q: With CCCCN(CC)Cc1onc(-c2ccc(F)cc2)c1-c1nc(C(=O)NC(C)C)cs1 [Example 1527] as the compound, how does the IC50 read?
A: > 1000 nM

Q: With Cc1cnc(CNC(=O)c2csc(-c3sc(C)nc3-c3ccc(F)cc3)n2)cn1 [Example 1757] as the compound, how does the IC50 read?
A: ≤ 1000 nM

Q: Cc1nc(-c2ccc(F)cc2)c(-c2nc(C(=O)Nc3cc(F)c(F)cc3F)cs2)s1 [Example 1995] was tested. Which IC50 did it give?
A: > 1000 nM

Q: How did the IC50 turn out when Cc1ccc(NCc2nc(-c3ccc(F)cc3)c(-c3nc(C(=O)NC(C)C)cs3)o2)cc1Cl [Example 1345] was run?
A: > 1000 nM

Q: For Cc1nc(-c2ccc(F)cc2)c(-c2nc(C(=O)N3CCC(O)(c4ccc(Cl)cc4)CC3)cs2)s1 [Example 1940], which IC50 is on record?
A: > 1000 nM

Q: Which IC50 does the source give for Cc1nc(-c2ccc(F)cc2)c(-c2nc(C(=O)NCCc3cccc(Cl)c3)cs2)s1 [Example 1804] here?
A: ≤ 1000 nM

Q: For CC(C)NC(=O)c1csc(-c2c(-c3ccc(F)cc3)n[nH]c2C2CCN(C(=O)C(C)NC(=O)OC(C)(C)C)CC2)n1 (stereo not shown) [Example 962], which IC50 is on record?
A: > 1000 nM

Q: Which IC50 does the source give for COc1ccc(C(=O)CNCc2onc(-c3ccc(F)cc3)c2-c2nc(C(=O)NC(C)C)cs2)cc1 [Example 1504] here?
A: > 1000 nM

Q: For CC(C)NC(=O)c1csc(-c2c(-c3ccc(F)cc3)n[nH]c2C2CCN(C(=O)CCc3nc4ccccc4[nH]3)CC2)n1 [Example 964], which IC50 is on record?
A: ≤ 1000 nM

Q: How did the IC50 turn out when O=C(NCc1ccccc1OC(F)(F)F)c1csc(-c2c(-c3ccc(F)cc3)n[nH]c2C2CCNCC2)n1 [Example 2152] was run?
A: > 1000 nM

Q: With CCOc1ccccc1NCc1nc(-c2ccc(F)cc2)c(-c2nc(C(=O)NC(C)C)cs2)o1 [Example 1342] as the compound, how does the IC50 read?
A: > 1000 nM

Q: For CC(C)NC(=O)c1csc(-c2oc(CNc3ccc4c(c3)CCC4)nc2-c2ccc(F)cc2)n1 [Example 1333], which IC50 is on record?
A: > 1000 nM

Q: For Cc1cccc(N2CCN(C(=O)c3csc(-c4sc(C)nc4-c4ccc(F)cc4)n3)CC2C)c1 (stereo not shown) [Example 1915], which IC50 is on record?
A: ≤ 1000 nM

Q: Which IC50 does the source give for CC(C)NC(=O)c1csc(-c2c(-c3ccc(F)cc3)n[nH]c2C2CCN(C(=O)c3c(O)ccc4ccccc34)CC2)n1 [Example 957] here?
A: > 1000 nM

Q: Which IC50 does the source give for CC(C)NC(=O)c1csc(-c2oc(CNCCc3cccc(F)c3)nc2-c2ccc(F)cc2)n1 [Example 1129] here?
A: > 1000 nM

Q: How did the IC50 turn out when CC(C)NC(=O)c1csc(-c2oc(CN[C@H](CO)Cc3ccccc3)nc2-c2ccc(F)cc2)n1 [Example 1144] was run?
A: > 1000 nM

Q: With Cc1nc(-c2ccc(F)cc2)c(-c2nc(C(=O)NCc3ccc(C(C)C)cc3)cs2)s1 [Example 1795] as the compound, how does the IC50 read?
A: > 1000 nM

Q: Cc1nc(-c2ccc(F)cc2)c(-c2nc(C(=O)NCc3ccccn3)cs2)s1 [Example 1741] was tested. Which IC50 did it give?
A: ≤ 1000 nM

Q: Cc1cccc(N2CCN(Cc3nc(-c4ccc(F)cc4)c(-c4nc(C(=O)NC(C)C)cs4)o3)CC2)c1C [Example 1262] was tested. Which IC50 did it give?
A: > 1000 nM

Q: CN1CCN(NC(=O)c2csc(-c3c(-c4ccc(F)cc4)n[nH]c3C3CCNCC3)n2)CC1 [Example 2071] was tested. Which IC50 did it give?
A: > 1000 nM

Q: Which IC50 does the source give for CCOC(=O)CC(=O)N1CCC(c2[nH]nc(-c3ccc(F)cc3)c2-c2nc(C(=O)NC(C)C)cs2)CC1 [Example 834] here?
A: ≤ 1000 nM

Q: Cc1nc(-c2ccc(F)cc2)c(-c2nc(C(=O)NC3CCCCC3)cs2)s1 [Example 1732] was tested. Which IC50 did it give?
A: ≤ 1000 nM

Q: How did the IC50 turn out when CC(C)NC(=O)c1csc(-c2c(-c3ccc(F)cc3)n[nH]c2C2CCN(C(=O)c3cc(Cl)ccc3[N+](=O)[O-])CC2)n1 [Example 989] was run?
A: > 1000 nM
